Measurements reported in patent US20220089655A1, “NOVEL POLYPEPTIDE-MODIFYING ENZYMES AND USES THEREOF” (ETH ZURICH, priority 2018, published 2022).
Starred links: 1 amine or outer side, 2 acyl side, 3 side chain; linkers in the order of their positions; H or OH if unused. Non-standard residues stand in square brackets, D forms with d. No end group written: not given here. *: point of attachment. X1 = CC(C)C(C)[C@H](N[*:1])C(=O)[*:2]; Ile(3-Me) = CCC(C)(C)[C@H](N)C(=O)O; d(aThr) = C[C@@H](O)[C@@H](N)C(=O)O; Butanoyl(2-oxo) = CCC(=O)C(=O)*; Tle = CC(C)(C)[C@H](N)C(=O)O

What was measured:
[1] = system: bacteria; experiment: Activity towards bacteria
[2] = system: fungi; experiment: Activity towards fungi
[3] = Cytotoxic assay (MTT) against HeLa cells; format: cell-based; details: 3 days incubation, MTT readout
Procedure: The activity of aeronamide A was measured against HeLa cells. Stocked HeLa cells were resuspended in 10 mL HEPES buffered high glucose Dulbecco's Modified Eagle Medium (DMEM) supplemented with GlutaMAX (Gibco). Additionally, the medium contained 10% fetal calf serum (FCS) and […] gentamycin. The cells were centrifuged for 5 min at 1000×g and room temperature. The medium was discarded and the cells resuspended in 10 mL fresh medium. The cells were put in a culture dish and incubated for 3-4 days at 37° C. The cells were checked under the microscope and treated further only when 60-80% of the surface was covered with cells. The medium was removed from the culture flask and the cells were washed with 10 mL phosphate buffered saline (PBS). The PBS was discarded and the cells treated with 2 mL Trypsin-EDTA solution. When the cells were detached, 10 mL of medium was added and centrifuged for 5 min at 1000×g and room temperature. The supernatant was discarded and 10 mL fresh medium were added. 2 mL of the cell suspension were put in a fresh culture flask containing 10 mL medium. Cells healthy enough for cytotoxicity assays were counted and diluted to a 10,000 cells/mL solution. 96 well plates were filled with 200 μL cell suspension per well. All plates were incubated overnight at 37° C. […] Absorbance was measured at 570 nm and IC50 was calculated using GraphPad Prism 6 (GraphPad).

{Butanoyl(2-oxo)}-[Ile(3-Me)][dA][Tle][dV][X1][dV]A[dV][Tle]GA[dA]A[dA]A[dV][Tle][d(aThr)]Y[dL]G[dA]A[dD](NHMe)[Tle][dV]G[dA]A[dD](NHMe)G[d(aThr)][Tle][d(aThr)]A[dD](NHMe)A[dV]A[dD](NHMe)T[dD](NHMe)A[dV]A [Aeronamide A]
cytotoxic activity towards bacteria [1]: not towards the bacteria and fungi
cytotoxic activity towards fungi [2]: not towards the bacteria and fungi
IC50 [3]: 1.48 nM
